Values of other authors, collected in patent publication US7968117B1, “Externally triggered microcapsules” (The United States of America as represented by the …, priority 1994, dated 2011).

Assays:
[1] = preferred value within the printed range
[2] = dogs' brain, artificially heated region

Row | SMILES | HLB (preferred) [1] | heating temperature of the brain regions showing extravasation of Eb [2]
1 | CCCCCCCCCCCCCCCCCC(=O)OCC(O)CO (centres unmarked) [Glycerol Monostearate (gms), Glycerol Monostearate] | (3.8 preferred) | 
2 | Cc1cc(-c2ccc(/N=N/c3ccc4c(S(=O)(=O)[O-])cc(S(=O)(=O)[O-])c(N)c4c3O)c(C)c2)ccc1/N=N/c1ccc2c(S(=O)(=O)[O-])cc(S(=O)(=O)[O-])c(N)c2c1O.[Na+].[Na+].[Na+].[Na+] [free Eb, Evans blue dye] |  | greater than 44 °C
